Experimental data reported in patent US4945102A, “Heterocyclic derivatives and radiosensitizing agents and antiviral agents comprising same as their active component” (Pola Chemical Industries Inc., Japan, priority 1987, dated 1990).
Like-named read-outs stand apart in the source and are kept apart here.

Assays:
Acute toxicity test = format: in vivo; settings: for General Status / LD50 at 336 h: mouse, in vivo; for LD50 at 336 h: ICR male mice, 14 days, read-out: LD50/14 (50% death rate over 14 days)
Experimental: Acute toxicity test and other tests regarding radiosensitising ability and antiviral activity were carried out using the compounds of the present invention.
ICR strain male mice of 5 week old were intravenously or intraperitoneally administered with various compounds each dissolved in a physiological saline or in a physiological saline containing 10% DMSO. The mice were observed over 14 days and 50% death rates (LD50/14) were obtained.

single cells of EMT-6 = assay: Radiosensitivity test, in vitro test 1 (single cells of EMT-6, hypoxic); format: cell-based; settings: 1.0 mM, single EMT-6 cells, 60Co gamma rays
Text: Cells used in the test: single cells of EMT-6
Irradiation: ^60 Co - gamma rays
Cell treatment to hypoxia:
A mixture gas of 95% nitrogen and 5% carbon dioxide was passed through cell suspension.
Determined by counting colonies.
Radiosensitivity enhancement ratio (ER): [formula]

[1] = system: Herpes simplex virus type I; assay: Antiviral activity test (cytopathic effect in Vero cells); format: cell-based; design: key: 0: almost all cells are dead; 1: certain effect of test agent with some dead cells; 2: normal; settings: one day
Experimental: (3) Antiviral activity test Virus: Herpes simplex virus type I Cells: Vero (monkey kidney cells) Culture medium: 2% FBS MEM A sample conditioned to contain 2×10^5 /ml of vero cells was cultured at 37° C. in an atmosphere of 5% CO2 for 1 day to obtain a monolayer sample. The sample was infected by HSV virus diluted with PBS (phosphate buffer). Compound (I) was dissolved in DMSO, then adjusted to have concentrations of 100 μg/ml, 50 μg/ml, 10/μg/ml,5,μ/ml and 1 μg/ml by 2% FBS MEM, and served as test agents. The culture cells were added with each agent separately and incubated at 37° C. in a Co2 incubator for one day. The cytopathic effect was observed under microscope. Cells were stained by crystal violet and scored as follows: 0: almost all cells are dead 1: certain effect of test agent with some dead cells 2: normal The results are shown in Table 3.

EMT-6 tumor = assay: Radiosensitivity in vivo test (EMT-6 tumor); design: species or system Balb/c mice; settings: 200 mg/kg intraperitoneal 20 minutes prior to whole body 60Co irradiation
Experimental: Tested compound: compound (3), 200 mg/kg
Compound (3) dissolved in a physiological saline was intraperitoneally administered 20 minutes prior to irradiation.
Irradiation: ^60 Co - gamma rays, whole body irradiation
Determination of radiosensitivity enhancement:
Enhancement ratio (ER) was obtained from irradiation dose and reduction ratio of tumor cells.

Spheroids of EMT-6 = assay: Radiosensitivity test, in vitro test 2 (spheroids of EMT-6); format: cell-based; settings: 1 mM, 37° C. over 30 to 60 minutes, 60Co gamma rays
Experimental: (b) In vitro test 2 Cells used in the test: Spheroids of EMT-6 Irradiation: ^60 Co - gamma rays Tested compound: Compound (3), 1 mM Determination of radiosensitivity enhancement: Six particles of spheroid having a certain size were taken and placed in a culture solution containing compound (3) having a concentration of 1 mM, and incubated at 37° C. over 30 to 60 minutes, followed by irradiation. The spheroids were treated by trypsin and then the enhancement ratio (ER) was obtained by counting colonies.

Compound: CC(=O)OCC(COC(C)=O)OCn1ccnc1[N+](=O)[O-] [(1), 1-[2-acetoxy-1-(acetoxymethyl)ethoxy]methyl-2-nitroimidazol]
- Dead/Treated (Acute toxicity test; intraperitoneal, 720 mg/kg): 0/2
- Dead/Treated (Acute toxicity test; intraperitoneal, 860 mg/kg): 0/2
- General Status (Acute toxicity test; ip): Calmed down
- LD50 at 336 h (Acute toxicity test; ip, intraperitoneal): > 860 mg/kg

Compound: CC(=O)OCC(COC(C)=O)OCn1cnc([N+](=O)[O-])n1 [(2), 1-[2-acetoxy-1-(acetoxymethyl)ethoxy]methyl-3-nitro-1,2,4-triazol]
- Dead/Treated (Acute toxicity test; intraperitoneal, 600 mg/kg): 0/2
- Dead/Treated (Acute toxicity test; intraperitoneal, 720 mg/kg): 0/2
- Dead/Treated (Acute toxicity test; intraperitoneal, 860 mg/kg): 2/2
- LD50 at 336 h (Acute toxicity test; ip, intraperitoneal): 790 mg/kg

Compound: O=[N+]([O-])c1ncn(COC(CO)CO)n1 [(4), 1-[2-hydroxy-1-(hydroxymethyl)ethoxy]methyl-3-nitro-1,2,4-triazol]
- Radiosensitivity enhancement ratio (ER) (single cells of EMT-6): 1.50
- cytopathic effect score ([1]; 1 μg/ml): 0
- cytopathic effect score ([1]; 5 μg/ml): 0
- cytopathic effect score ([1]; 10 μg/ml): 1
- cytopathic effect score ([1]; 50 μg/ml): 2
- cytopathic effect score ([1]; 100 μg/ml): 2
- Dead/Treated (Acute toxicity test; intravenous, 720 mg/kg): 0/2
- Dead/Treated (Acute toxicity test; intravenous, 860 mg/kg): 1/2
- General Status (Acute toxicity test; iv): Calmed down
- LD50 at 336 h (Acute toxicity test; intravenous): 860 mg/kg

Compound: O=[N+]([O-])c1nccn1COC(CO)CO [Compound (3), 1-[2-hydroxy-1-(hydroxymethyl)ethoxy]methyl-2-nitroimidazol]
- enhancement ratio (ER) (EMT-6 tumor): 1.55
- Radiosensitivity enhancement ratio (ER) (single cells of EMT-6): 1.70
- enhancement ratio (ER) (Spheroids of EMT-6): 1.55
- cytopathic effect score ([1]; 1 μg/ml): 0
- cytopathic effect score ([1]; 5 μg/ml): 0
- cytopathic effect score ([1]; 10 μg/ml): 1
- cytopathic effect score ([1]; 50 μg/ml): 2
- cytopathic effect score ([1]; 100 μg/ml): 2
- Dead/Treated (Acute toxicity test; intravenous, 720 mg/kg): 0/2
- Dead/Treated (Acute toxicity test; intravenous, 860 mg/kg): 0/2
- General Status (Acute toxicity test; iv): Calmed down
- LD50 at 336 h (Acute toxicity test; intravenous): > 860 mg/kg
